What was measured:
Assay in all cases: competitive isoTOP-ABPP
Type in all cases: binding
[1] = target: T1, CDK2 Cyclin-dependent kinase 2 (Homo sapiens, UniProt P24941); conditions: for isoTOP-ABPP ratio, lysine P24941_K33: 50 uM_231_sol_in vitro
T1 construct: isoTOP-ABPP experiments performed in cell lysates (in vitro); endogenous in cells; host or cells: soluble proteome of human cancer cell lines (MDA-MB-231; Ramos and Jurkat also prepared)
Procedure, shortened: (§1)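 Fragments at 50 μM (activated esters) or 100 μM (guanidinylating agents) were incubated with 0.5 ml lysate before probe labeling. After 0.1 mM STP-alkyne for 1 h, samples were clicked to isotopically distinct TEV tags, and R taken as DMSO-over-compound MS1 peak-area ratio.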

[2] = target: T2, SOD2 Superoxide dismutase (Homo sapiens, UniProt P04179); conditions: for isoTOP-ABPP ratio, lysine P04179_K68: 50 uM_231_sol_in vitro
T2 construct: isoTOP-ABPP experiments performed in cell lysates (in vitro); endogenous in cells; host or cells: MDA-MB-231 soluble lysate
T2 sequence (P04179 25-222): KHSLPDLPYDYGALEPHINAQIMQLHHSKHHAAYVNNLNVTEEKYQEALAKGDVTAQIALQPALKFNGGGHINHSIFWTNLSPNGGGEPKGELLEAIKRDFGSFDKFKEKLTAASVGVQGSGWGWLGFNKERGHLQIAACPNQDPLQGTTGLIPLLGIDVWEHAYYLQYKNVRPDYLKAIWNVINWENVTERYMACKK
Procedure, shortened: as §1

[3] = target: T3, LDHB L-lactate dehydrogenase B chain (Homo sapiens, UniProt P07195); conditions: for isoTOP-ABPP ratio, lysine P07195_K82 / isoTOP-ABPP ratio, lysine P07195_K244: 50 uM_231_sol_in vitro
T3 construct: isoTOP-ABPP experiments performed in cell lysates (in vitro); endogenous in cells; host or cells: MDA-MB-231 soluble lysate
Procedure, shortened: as §1

[4] = target: T4, MRPL12 39S ribosomal protein L12, mitochondrial (Homo sapiens, UniProt P52815); conditions: for isoTOP-ABPP ratio, lysine P52815_K87: 50 uM_231_sol_in vitro, possible other lysine B4DLN1_K87, P52815_K91
T4 construct: isoTOP-ABPP experiments performed in cell lysates (in vitro); endogenous in cells; host or cells: soluble proteome of human cancer cell lines (MDA-MB-231, Ramos, Jurkat)
Procedure, shortened: as §1

T3 sequence (P07195 whole entry): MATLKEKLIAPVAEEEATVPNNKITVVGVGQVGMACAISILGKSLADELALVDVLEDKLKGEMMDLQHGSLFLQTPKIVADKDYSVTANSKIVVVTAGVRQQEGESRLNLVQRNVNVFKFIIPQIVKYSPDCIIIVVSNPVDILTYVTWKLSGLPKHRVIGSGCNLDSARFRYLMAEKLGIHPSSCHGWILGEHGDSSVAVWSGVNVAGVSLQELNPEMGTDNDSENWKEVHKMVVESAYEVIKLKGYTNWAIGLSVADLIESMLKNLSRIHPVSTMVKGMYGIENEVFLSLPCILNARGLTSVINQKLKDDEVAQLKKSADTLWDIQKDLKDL

## CC(C)(C)OC(=O)NCCCC(=O)Oc1ccc([N+](=O)[O-])cc1[N+](=O)[O-] [fragment 41, 2,4-Dinitrophenyl 4-((tert-butoxycarbonyl)amino)butanoate]
[1]; 50 uM, in vitro, sol, 231
  isoTOP-ABPP ratio (R) at liganded lysine P24941_K33: 1.0
[2]; 50 uM, in vitro, sol, 231
  isoTOP-ABPP ratio (R) at liganded lysine P04179_K68: 4.8
[3]; 50 uM, in vitro, sol, 231
  isoTOP-ABPP ratio (R) at liganded lysine P07195_K244: 20.0
[4]; 50 uM, in vitro, sol, 231
  isoTOP-ABPP ratio (R) at liganded lysine P52815_K87: 4.1

## N#Cc1ccc(C(=O)Oc2ccc([N+](=O)[O-])cc2[N+](=O)[O-])cc1 [fragment 44, 2,4-Dinitrophenyl 4-cyanobenzoate]
[1]
  isoTOP-ABPP ratio, lysine P24941_K33: 1.1
[2]
  isoTOP-ABPP ratio, lysine P04179_K68: 1.6
[3]
  isoTOP-ABPP ratio, lysine P07195_K82: 1.0
  isoTOP-ABPP ratio, lysine P07195_K244: 1.1
[4]
  isoTOP-ABPP ratio, lysine P52815_K87: 1.1

## O=C(ON1C(=O)CCC1=O)c1cc(C(F)(F)F)cc(C(F)(F)F)c1 [fragment 46, 3,5-Bis(trifluoromethyl)benzoic acid NHS ester]
[1]
  isoTOP-ABPP ratio, lysine P24941_K33: 0.9
[2]
  isoTOP-ABPP ratio, lysine P04179_K68: 0.9
[3]
  isoTOP-ABPP ratio, lysine P07195_K82: 0.7
  isoTOP-ABPP ratio, lysine P07195_K244: 0.8
[4]
  isoTOP-ABPP ratio, lysine P52815_K87: 0.6

Reference: patent US20210255193A1, “LYSINE REACTIVE PROBES AND USES THEREOF” (The Scripps Research Institute, priority 2017, published 2021)
